In patent US6479435B1, “Diaryl ethers and processes for their preparation and herbicidal and desiccant compositions containing them” (ISK Americas Incorporated, priority 1997, dated 2002):

Columns and labels:
Assay type in all cases: in vivo
[1] = test system: Johnsongrass (Sorghum halepense, SORHA); experiment: Pre-emerge greenhouse herbicide test, phytotoxicity rating; settings: 14 days after application, rating scale 0-100
In short: (§1)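 Visual 0–100 injury rating (100 = all plants dead) taken 14 days after treatment. Rates of 125–1000 g ai/ha in acetone, 187 l/ha, were sprayed onto soil one day post-sowing; pots were surface-watered to incorporate, then bottom-watered.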

[2] = test system: barnyardgrass (Echinochloa crusgalli, ECHCG); experiment: as above; settings: 14 days after application, rating scale 0-100
In short: as §1

[3] = test system: common ragweed (Ambrosia artemisiifolia L., AMBEL); experiment: as above; settings: 14 days after application, rating scale 0-100
In short: as §1

[4] = test system: green foxtail (Setaria viridis, SETVI); experiment: as above; settings: 14 days after application, rating scale 0-100
In short: as §1

[5] = test system: ivyleaf morningglory (Ipomoea hederacea, IPOHE); experiment: as above; settings: 14 days after application, rating scale 0-100
In short: as §1

[6] = test system: lambsquarters (Chenopodium album, CHEAL); experiment: as above; settings: 14 days after application, rating scale 0-100
In short: as §1

[7] = test system: large crabgrass (Digitaria sanguinalis, DIGSA); experiment: as above; settings: 14 days after application, rating scale 0-100
In short: as §1

[8] = test system: redroot pigweed (Amaranthus retroflexus, AMARE); experiment: as above; settings: 14 days after application, rating scale 0-100
In short: as §1

[9] = test system: sicklepod (Cassia obtusifolia, CASOB); experiment: as above; settings: 14 days after application, rating scale 0-100
In short: as §1

[10] = test system: velvetleaf (Abutilon theophrasti, ABUTH); experiment: as above; settings: 14 days after application, rating scale 0-100
In short: as §1

[11] = test system: field corn (Zea mays L., var. Dekalb 535, CORN); experiment: Pre-emerge greenhouse test, crop damage rating; settings: 14 days after application, rating scale 0-100
In short: as §1

[12] = test system: upland rice (Oryza sp., var.Tebonnet, RICE); experiment: Pre-emerge greenhouse test, crop damage rating; settings: 14 days after application, rating scale 0-100
In short: as §1

[13] = test system: soybean (Glycine max L., var. Pella 86, SOY); experiment: Pre-emerge greenhouse test, crop damage rating; set-up: key to SOY crop damage rating: 0 = no damage, 100 = complete death of all plants; settings: 14 days after application, rating scale 0-100
In short: as §1

[14] = test system: common ragweed (Ambrosia artemisiifolia L., AMBEL); experiment: Post-emerge greenhouse herbicide test, phytotoxicity rating; settings: 14 days after application, scale 0-100
In short: (§2)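 Scores use a 0 (no damage) to 100 (complete kill) scale, taken 14 days after a foliar spray. Acetone solutions with 0.25% v/v non-ionic surfactant were applied by track sprayer at 187 l/ha and 63-1000 g ai/ha to bottom-watered 2-3 leaf plants.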

[15] = test system: Johnsongrass (Sorghum halepense, SORHA); experiment: as above; settings: 14 days after application, scale 0-100
In short: as §2

[16] = test system: barnyardgrass (Echinochloa crusgalli, ECHCG); experiment: as above; settings: 14 days after application, scale 0-100
In short: as §2

[17] = test system: green foxtail (Setaria viridis, SETVI); experiment: as above; settings: 14 days after application, scale 0-100
In short: as §2

[18] = test system: ivyleaf morningglory (Ipomoea hederacea, IPOHE); experiment: as above; settings: 14 days after application, scale 0-100
In short: as §2

[19] = test system: lambsquarters (Chenopodium album, CHEAL); experiment: as above; settings: 14 days after application, scale 0-100
In short: as §2

[20] = test system: large crabgrass (Digitaria sanguinalis, DIGSA); experiment: as above; settings: 14 days after application, scale 0-100
In short: as §2

[21] = test system: redroot pigweed (Amaranthus retroflexus, AMARE); experiment: as above; settings: 14 days after application, scale 0-100
In short: as §2

[22] = test system: sicklepod (Cassia obtusifolia, CASOB); experiment: as above; settings: 14 days after application, scale 0-100
In short: as §2

[23] = test system: velvetleaf (Abutilon theophrasti, ABUTH); experiment: as above; settings: 14 days after application, scale 0-100
In short: as §2

[24] = test system: field corn (Zea mays L., var. Dekalb 535, CORN); experiment: Post-emerge greenhouse test, crop damage rating; settings: 14 days after application, scale 0-100
In short: as §2

[25] = test system: upland rice (Oryza sp., var.Tebonnet, RICE); experiment: Post-emerge greenhouse test, crop damage rating; settings: 14 days after application, scale 0-100
In short: as §2

[26] = test system: soybean (Glycine max L., var. Pella 86, SOY); experiment: Post-emerge greenhouse test, crop damage rating; set-up: key to crop damage rating SOY: 0-100 scale: 0 = no damage, 100 = complete death of all plants; settings: 14 days after application, scale 0-100
In short: as §2

`O=c1n(-c2cc(Oc3ccc([N+](=O)[O-])cn3)c(Cl)cc2F)c(=S)n2n1CCCC2` [Compound 8-23] was tested, and the SORHA phytotoxicity rating ([1]; Rate 125 g al/ha) was 0, the SORHA phytotoxicity rating ([1]; Rate 500 g al/ha) was 30 and the ECHCG phytotoxicity rating ([2]; Rate 125 g al/ha) was 0. The ECHCG phytotoxicity rating ([2]; Rate 500 g al/ha) was 10, the AMBEL phytotoxicity rating ([3]; Rate 125 g al/ha) was 0 and the AMBEL phytotoxicity rating ([3]; Rate 500 g al/ha) was 60. It also gave an SETVI phytotoxicity rating ([4]; Rate 125 g al/ha) of 10, an SETVI phytotoxicity rating ([4]; Rate 500 g al/ha) of 100 and an IPOHE phytotoxicity rating ([5]; Rate 125 g al/ha) of 30. The IPOHE phytotoxicity rating ([5]; Rate 500 g al/ha) was 60, the CHEAL phytotoxicity rating ([6]; Rate 125 g al/ha) was 100 and the CHEAL phytotoxicity rating ([6]; Rate 500 g al/ha) was 100. The DIGSA phytotoxicity rating ([7]; Rate 125 g al/ha) was 0, the DIGSA phytotoxicity rating ([7]; Rate 500 g al/ha) was 50 and the AMARE phytotoxicity rating ([8]; Rate 125 g al/ha) was 90. It also gave an AMARE phytotoxicity rating ([8]; Rate 500 g al/ha) of 100, a CASOB phytotoxicity rating ([9]; Rate 125 g al/ha) of 0 and a CASOB phytotoxicity rating ([9]; Rate 500 g al/ha) of 50. For the same compound, the ABUTH phytotoxicity rating ([10]; Rate 125 g al/ha) was 95, the ABUTH phytotoxicity rating ([10]; Rate 500 g al/ha) was 100 and the “CORN crop damage rating” value ([11]; Rate 125 g al/ha) was 0. For the same compound, the “CORN crop damage rating” value ([11]; Rate 500 g al/ha) was 0, the “RICE crop damage rating” value ([12]; Rate 125 g al/ha) was 0 and the “RICE crop damage rating” value ([12]; Rate 500 g al/ha) was 0. The “SOY crop damage rating” value ([13]; Rate 125 g al/ha) was 0, the “SOY crop damage rating” value ([13]; Rate 500 g al/ha) was 20 and the “phytotoxicity rating AMBEL” value ([14]; rate 63 g ai/ha) was 50. For the same compound, the “phytotoxicity rating AMBEL” value ([14]; rate 500 g ai/ha) was 100, the “phytotoxicity rating SORHA” value ([15]; rate 63 g ai/ha) was 0 and the “phytotoxicity rating SORHA” value ([15]; rate 500 g ai/ha) was 20. The “phytotoxicity rating ECHCG” value ([16]; rate 63 g ai/ha) was 0, the “phytotoxicity rating ECHCG” value ([16]; rate 500 g ai/ha) was 0 and the “phytotoxicity rating SETVI” value ([17]; rate 63 g ai/ha) was 0. For the same compound, the “phytotoxicity rating SETVI” value ([17]; rate 500 g ai/ha) was 20, the “phytotoxicity rating IPOHE” value ([18]; rate 63 g ai/ha) was 50 and the “phytotoxicity rating IPOHE” value ([18]; rate 500 g ai/ha) was 100. For the same compound, the “phytotoxicity rating CHEAL” value ([19]; rate 63 g ai/ha) was 95, the “phytotoxicity rating CHEAL” value ([19]; rate 500 g ai/ha) was 99 and the “phytotoxicity rating DIGSA” value ([20]; rate 63 g ai/ha) was 0. The “phytotoxicity rating DIGSA” value ([20]; rate 500 g ai/ha) was 0, the “phytotoxicity rating AMARE” value ([21]; rate 63 g ai/ha) was 95 and the “phytotoxicity rating AMARE” value ([21]; rate 500 g ai/ha) was 99. For the same compound, the “phytotoxicity rating CASOB” value ([22]; rate 63 g ai/ha) was 70, the “phytotoxicity rating CASOB” value ([22]; rate 500 g ai/ha) was 100 and the “phytotoxicity rating ABUTH” value ([23]; rate 63 g ai/ha) was 100. The “phytotoxicity rating ABUTH” value ([23]; rate 500 g ai/ha) was 100, the “crop damage rating CORN” value ([24]; rate 63 g ai/ha) was 0 and the “crop damage rating CORN” value ([24]; rate 500 g ai/ha) was 5. For the same compound, the “crop damage rating RICE” value ([25]; rate 63 g ai/ha) was 0, the “crop damage rating RICE” value ([25]; rate 500 g ai/ha) was 0 and the “crop damage rating SOY” value ([26]; rate 63 g ai/ha) was 25. For the same compound, the “crop damage rating SOY” value ([26]; rate 500 g ai/ha) was 60.
